Measured values from patent publication US12616705B2, “Use of cannabinoids in the treatment of Angelman syndrome” (JAZZ PHARMACEUTICALS RESEARCH UK LIMITED, priority 2016, dated 2026).

Assays:
[1] = tested on: Heterozygous mice with maternal deficiency of Ube3A (Ube3am−/p+); assay: Clasping test (ataxia) in a mouse model of Angelman syndrome; type: in vivo; settings: AS mice, CBD 20 mg/kg i.p. daily, chronic treatment (30 days), at 10 weeks of age, vs AS mice treated with vehicle; FIG. 1
Protocol: (§1) Heterozygous mice with maternal deficiency of Ube3A (Ube3am−/p+) and wild type (Ube3am+/p+) were purchased from The Jackson Laboratory (Jackson code: B6.12957-Ube3a tm1Alb/J) and maintained in a C57BL/6 background.
(§2) Drugs were dissolved in 1:1:18 ethanol:cremophor: 0.9% saline, for intraperitoneal (i.p.) administration. […]
Clasping: The clasping test assesses ataxia in mice. Mice were suspended by the base of the tail and their behaviours were recorded for 30 seconds. The time for which the mice clasped their hind limbs was recorded. The time was then scored as follows: 4, 15-30 s, 3, 10-15 s, 2, 5-10 s, 1, 0-5 s and 0, 0 s.

[2] = tested on: Heterozygous mice with maternal deficiency of Ube3A (Ube3am−/p+); assay: Rotarod test (balance and motor coordination) in a mouse model of Angelman syndrome; type: in vivo; settings: AS mice, CBD 20 mg/kg i.p. daily, chronic treatment (30 days), vs AS mice treated with vehicle; FIG. 2
Protocol: as §1, §2
Rotarod: The rotarod test assesses balance and motor coordination of mice. Mice have been measured for the time (in seconds) of equilibrium before falling on a rotary cylinder by a magnet that, activated from the fall of the mouse on the plate, allows to record the time of permanence on the cylinder. […] The animals were analysed by 2 separate tests at 1-h interval in the same day.

[3] = tested on: Heterozygous mice with maternal deficiency of Ube3A (Ube3am−/p+); assay: Tail suspension test (depressive-like behaviour) in a mouse model of Angelman syndrome; type: in vivo; settings: AS mice, CBD 20 mg/kg i.p. daily, vs AS mice treated with vehicle; FIG. 4
Protocol: as §1
Drugs were dissolved in 1:1:18 ethanol:cremophor: 0.9% saline, for intraperitoneal (i.p.) administration. Drug treatment was performed daily for 35 days.
Tail suspension: The tail suspension test assesses depressive-like behaviour in mice. Mice were individually suspended by the tail on a horizontal bar (50 cm from floor) using adhesive tape placed approximately 4 cm from the tip of the tail. The duration of immobility was recorded in seconds over a period of 6 minutes by a time recorder. Immobility time was defined as the absence of escape-oriented behaviour.

[4] = background statement; cited from earlier work

Q: With C=C(C)[C@@H]1CCC(C)=C[C@H]1c1c(O)cc(CCCCC)cc1O [CBD, Cannabidiol] as the compound, how does the clasping duration [1] read?
A: significantly reduced clasping duration

Q: And the “latency to fall (rotarod)” value [2]?
A: significantly reduced latency to fall

Q: And the “duration of immobility time (tail suspension)” value [3]?
A: significantly reduced the duration of immobility time

Q: With Cc1c(C(=O)NN2CCCCC2)nn(-c2ccc(Cl)cc2Cl)c1-c1ccc(Cl)cc1 [rimonabant] as the compound, how does the side effects [4] read?
A: serious side effects which limit its use, such as suicide ideation
